Results on 49 compounds are retold here after patent US4581354A, “3-arylcarbonyl- and 3-cycloalkylcarbonyl-1-aminoalkyl-1H-indoles, compositions and use” (Sterling Drug Inc., priority 1985, dated 1986).

This assay relates to acetylcholine-induced abdominal constriction. Kind of assay: animal or person. The assay is classed as in vivo, mice. The note with it: for ED50: read-out: Ach ED50; for inhibition in vivo at 300 mg/kg: 300 mg./kg. oral; for inhibition in vivo at 3 mg/kg: 3 mg./kg. i.v.; for inhibition in vivo at 10 mg/kg: 10 mg./kg. i.v.; for inhibition in vivo at 550 mg/kg: 550 mg./kg. oral; for inhibition in vivo at 150 mg/kg: 150 mg./kg. oral; for Ach ED50: oral. An excerpt: The test procedures used to determine the analgesic activities of the compounds have been described in detail in the prior art and are as follows: The acetylcholine-induced abdominal constriction test, which is a primary analgesic screening test designed to measure the ability of a test agent to suppress acetylcholine-induced abdominal constriction in mice, described by Collier et al., Brit. J. Pharmacol. Chemotherap. 32, 295 (1968); a modification of the anti-bradykinin test, which is also a primary analgesic screening procedure, described by Berkowitz et al., J. Pharmacol. Exptl. Therap. 177, 500-508 (1971), Blane et al., J. Pharm. Pharmacol. 19, 367-373 (1967), Botha et al., Eur. J. Pharmacol. 6, 312-321 (1969) and Deffenu et al., J. Pharm. Pharmacol. 18, 135 (1966); and the rat paw flexion test, described by Kuzuna et al., Chem. Pharm. Bull., 23, 1184-1191 (1975), Winter et al., J. Pharm. Exptl. Therap., 211, 678-685 (1979) and Capetola et al., J. Pharm. Exptl. Therap. 214, 16-23 (1980).
Unless noted otherwise, all data were obtained on oral administration and are expressed either as the ED50 or as the percent inhibition at a given dose level (thus 30/100 or 30% inhibition at […].)
In some instances, the compounds were retested two or more times, and ED50 values were calculated for each series of repeat tests. In such instances, each of the ED50 values so-obtained is given in a series of values, thus 6, 28, 30, 43 in the case of the species of Example 1AW in the acetylcholine-induced abdominal constriction test.

[1] abbreviates: Mus musculus, po, 100 mg./kg. oral, read-out: Ach percent inhibition.
Setting [2] is: Mus musculus, po, read-out: Ach percent inhibition.
Setting [3] is: Mus musculus, iv, read-out: Ach percent inhibition.
The mark [4] stands for this setting: Mus musculus, iv, 30 mg./kg. i.v., read-out: Ach percent inhibition.
Setting [5] is: Mus musculus, sc, 30 mg./kg. s.c., read-out: Ach percent inhibition.
Setting [6] is: Mus musculus, po, 30 mg./kg. oral, read-out: Ach percent inhibition.

Where two headings read alike, the source gives them in different places.

Turning to “5-bromo-2-methyl-3-(4-methylbenzoyl)-1-[2-(4-morpholinyl)ethyl]-1H-indole [Example 33]”, the Ach percent inhibition (100 mg./kg. oral) came to 20%.

Turning to `COc1ccc(C(=O)c2c(C)n(CCN3CCOCC3)c3cc(Cl)ccc23)cc1` [Example 1-O], the ED50 (Mus musculus, po) is 91.6 mg/kg.

Regarding `Cc1c(C(=O)c2ccc(C#N)cc2)c2ccccc2n1CCCN1CCOCC1` [Example 1AA], the inhibition in vivo at 100 mg/kg under setting [1] amounted to 10%.

Regarding `Cc1cccc2c1c(C(=O)c1ccccc1)c(C)n2CCN1CCOCC1` [Example 1AB], the inhibition in vivo at 300 mg/kg under setting [2] was determined as 47%.

As for `Cc1c(C(=O)c2ccc(C#N)cc2)c2ccccc2n1CCN1CCOCC1` [Example 1AF, 2-methyl-3-(4-cyanobenzoyl)-1-[2-(4-morpholinyl)ethyl]-1H-indole], under setting [3], the inhibition in vivo at 3 mg/kg was determined as 0% and the inhibition in vivo at 10 mg/kg worked out at 0%. The inhibition in vivo at 30 mg/kg under setting [4] was 30%. Moreover, the ED50 (Mus musculus, po) stood at 200 mg/kg.

In the case of `Cc1c(C(=O)c2ccc(OCc3ccccc3)cc2)c2ccccc2n1CCN1CCOCC1` [Example 1AG, 2-methyl-3-(4-benzyloxybenzoyl)-1-[2-(4-morpholinyl)ethyl]-1H-indole], the inhibition in vivo at 10 mg/kg under setting [3] was 10%. The inhibition in vivo at 30 mg/kg reads like this: under setting [4], 56%; under setting [5], 20%. For the same compound, under setting [1], the inhibition in vivo at 100 mg/kg amounted to 40%. In addition, the inhibition in vivo at 300 mg/kg under setting [2] amounted to 47%.

Turning to `COc1cccc(C(=O)c2c(C)n(CCN3CCOCC3)c3ccccc23)c1` [Example 1AH], the median effective dose (ED50) (Mus musculus, po) turned out to be 85 mg/kg.

Take `COc1ccc(C(=O)c2c(C)n(CCN3CCOCC3)c3ccccc23)cc1OC` [Example 1AI]: the ED50 (Mus musculus, po) stood at 74 mg/kg.

In the case of `COc1ccc(C(=O)c2c(-c3ccccc3)n(CCN3CCOCC3)c3ccccc23)cc1` [Example 1AJ], under setting [1], the inhibition in vivo at 100 mg/kg is 13%. For the same compound, the inhibition in vivo at 300 mg/kg under setting [2] worked out at 53%.

Consider `COc1ccc2c(c1)c(C(=O)c1ccccc1)cn2CCN1CCOCC1` [Example 1AK], for which, under setting [2], the inhibition in vivo at 300 mg/kg turned out to be 40% and the inhibition in vivo at 550 mg/kg was determined as 47%.

Consider `COc1ccc2c(c1)c(C(=O)c1ccccc1)c(C)n2CCN1CCOCC1` [Example 1AL], for which, under “Mus musculus, po”, the ED50 stood at 113 mg/kg.

Turning to `COc1ccc(C(=O)c2c(C)n(CCN3CCOCC3)c3cc(OC)ccc23)cc1` [Example 1AM], the ED50 is, setting by setting: (Mus musculus, iv) 5 mg/kg; (Mus musculus, po) 32 mg/kg.

In the case of `O=C(c1ccc(Cl)cc1)c1cn(CCN2CCOCC2)c2ccccc12` [Example 1AR], under setting [2], the inhibition in vivo at 150 mg/kg came out at 27% and the inhibition in vivo at 300 mg/kg was 27%. For the same compound, the inhibition in vivo at 25 mg/kg (Mus musculus, sc, 25 mg./kg. s.c., read-out: Ach percent inhibition) amounted to 13%.

For the compound `Cc1c(C(=O)c2ccc(Cl)c(Cl)c2)c2ccccc2n1CCN1CCOCC1` [Example 1AS], the inhibition in vivo at 300 mg/kg under setting [2] was determined as 33%.

Regarding `CC(Cn1cc(C(=O)c2ccccc2)c2ccccc21)N1CCOCC1` (stereo not shown) [Example 1AZ], the inhibition in vivo at 75 mg/kg (Mus musculus, po, 75 mg./kg. oral, read-out: Ach percent inhibition) turned out to be 20%. Under setting [1], the inhibition in vivo at 100 mg/kg was 73%. Besides, under setting [2], the inhibition in vivo at 150 mg/kg came to 53%.

Turning to `Cc1cccc2c(C(=O)c3ccccc3)cn(CCN3CCOCC3)c12` [Example 1BA], the ED50 (Mus musculus, po) is 197 mg/kg.

As for `Cc1c(C(=O)c2cccc3ccccc23)c2ccccc2n1CCN1CCOCC1` [Example 1BB], the ED50 (Mus musculus, po) was 97 mg/kg.

As for `Cc1c(C(=O)c2ccc(C#N)cc2)c2ccccc2n1CCN1CCCC1` [Example 1BC], the inhibition in vivo at 100 mg/kg under setting [1] is 40%.

For `CCN(CC)CCn1c(C)c(C(=O)c2ccc(OC)cc2)c2ccccc21` [Example 1BD], the ED50 (Mus musculus, po) was determined as 65 mg/kg.

In the case of `CCN(CC)CCn1c(C)c(C(=O)c2ccc(OC)cc2)c2ccccc21` [Example 1BE], the “Ach ED50” value was determined as 50.9 mg/kg.

As for `COc1ccc(C(=O)c2c(C)n(CCN3CCOCC3)c3ccccc23)cc1` [Example 1BF], under setting [6], the inhibition in vivo at 30 mg/kg was determined as 0%.

Turning to `CCCOc1ccc(C(=O)c2c(C)n(CCN3CCOCC3)c3ccccc23)cc1` [Example 1BG], under setting [2], the inhibition in vivo at 300 mg/kg turned out to be 33%.

On to `CCOc1ccc(C(=O)c2c(C)n(CCN3CCOCC3)c3ccccc23)cc1` [Example 1BH], for which the inhibition in vivo at 10 mg/kg under setting [3] was determined as 50%. The inhibition in vivo at 30 mg/kg under setting [6] was found to be 0%. The inhibition in vivo at 100 mg/kg under setting [1] came to 27%. Under setting [2], the inhibition in vivo at 300 mg/kg worked out at 53% and the inhibition in vivo at 550 mg/kg came out at 58%. The inhibition in vivo at 30 mg/kg under setting [5] amounted to 7%.

In the case of `COc1ccc2cc(C(=O)c3c(C)n(CCN4CCOCC4)c4ccccc34)ccc2c1` [Example 1BJ], the inhibition in vivo at 100 mg/kg under setting [1] was 0%.

On to `Cc1c(C(=O)c2ccc(C#N)cc2)c2cc(F)ccc2n1CCCN1CCOCC1` [Example 1BL], for which the inhibition in vivo at 100 mg/kg under setting [1] was determined as 0%.

As for `COc1ccc(C(=O)c2cn(CCCN3CCOCC3)c3ccc(F)cc23)cc1` [Example 1BM], under setting [1], the inhibition in vivo at 100 mg/kg stood at 0%.

Regarding `COc1ccc(C(=O)c2c(C)n(CCCN3CCCCC3)c3ccc(F)cc23)cc1` [Example 1BN], the ED50 (Mus musculus, po) was 36 mg/kg.

For `Cc1c(C(=O)c2ccccc2)c2cc(F)ccc2n1CCCN1CCOCC1` [Example 1BO], under “Mus musculus, po”, the ED50 worked out at 173 mg/kg.

On to `CCN(CC)CCCn1c(C)c(C(=O)c2ccc(OC)cc2)c2cc(F)ccc21` [Example 1BP], for which the ED50 (Mus musculus, po) is 28 mg/kg.

For `COc1ccc(C(=O)c2c(C)n(CCCN3CCOCC3)c3c(F)cc(F)cc23)cc1` [Example 1BR], the ED50 (Mus musculus, po) worked out at 123 mg/kg.

For `COc1ccc(C(=O)c2c(C)n(C(C)CCN3CCOCC3)c3ccc(F)cc23)cc1` (stereo not shown) [Example 1BT], the inhibition in vivo at 100 mg/kg under setting [1] came to 90%.

With `Cc1c(C(=O)c2ccccc2F)c2cc(F)ccc2n1C(C)CCN1CCOCC1` (stereo not shown) [Example 1BW], under setting [1], the inhibition in vivo at 100 mg/kg was 10%.

For `Cc1c(C(=O)c2ccc(-c3ccccc3)cc2)c2ccccc2n1CCN1CCOCC1` [Example 1BZ], the inhibition in vivo at 100 mg/kg under setting [1] was 0%.

Take `Cc1c(C(=O)c2cccc3c2OCO3)c2ccccc2n1CCN1CCOCC1` [Example 1CA]: under setting [1], the inhibition in vivo at 100 mg/kg stood at 20%.

As to `Cc1c(C(=O)c2ccccc2-c2ccccc2)c2ccccc2n1CCN1CCOCC1` [Example 1CB], the inhibition in vivo at 100 mg/kg under setting [1] is 60%.

With `Cc1c(C(=O)c2ccc(C#N)cc2)c2cc(F)ccc2n1CCN1CCOCC1` [Example 1CC], the inhibition in vivo at 100 mg/kg under setting [1] was 10%.

`Cc1c(C(=O)c2ccccc2F)c2ccccc2n1C(C)CCN1CCOCC1` (stereo not shown) [Example 1CD]: the ED50 (Mus musculus, po) was 79 mg/kg.

`CCN(CC)CCn1c(C)c(C(=O)c2ccc3ccccc3c2)c2ccccc21` [Example 1CE]: the inhibition in vivo at 100 mg/kg under setting [1] came to 0%.

`COc1ccc(C(=O)c2c(C)n(CCCN3CCCC3)c3ccccc23)cc1` [Example 1CF]: under “Mus musculus, po”, the 50% effective dose (ED50) is 24 mg/kg.

Take `COc1ccc(C(=O)c2c(C)n(CCCN3CCCC3)c3ccccc23)cc1` [Example 1CG]: the “Ach ED50” value was determined as 46.3 mg/kg.

On to `CN(C)CCn1cc(C(=O)c2ccccc2)c2ccccc21` [Example 1CH], for which the ED50 (Mus musculus, po) turned out to be 105 mg/kg.

For the compound `COc1ccc(C(=O)c2c(C)n(CCCCCN3CCOCC3)c3ccc(F)cc23)cc1` [Example 1CI], the inhibition in vivo at 100 mg/kg under setting [1] was determined as 70%.

Turning to `COc1ccc(C(=O)c2c(C)n(CCCCN3CCOCC3)c3ccc(F)cc23)cc1` [Example 1CJ], the ED50 (Mus musculus, po) was 56 mg/kg.

Consider `Cc1c(C(=O)c2cccc(F)c2F)c2ccccc2n1CCN1CCOCC1` [Example 1CK], for which the inhibition in vivo at 100 mg/kg under setting [1] was found to be 30%.

Consider `Cc1cccc(C)c1C(=O)c1c(C)n(CCN2CCOCC2)c2ccccc12` [Example 1CL], for which the inhibition in vivo at 100 mg/kg under setting [1] stood at 30%.

For `Cc1c(C(=O)c2ccco2)c2ccccc2n1CCN1CCOCC1` [Example 1C], the ED50 (Mus musculus, po) turned out to be 126 mg/kg.

For the compound `COc1ccc(C(=O)c2c(C)n(CCN3CCOCC3)c3c(C)cccc23)cc1` [Example 1E], the inhibition in vivo at 100 mg/kg under setting [1] stood at 0%.

For `COc1ccc(C(=O)c2c(C)n(CCN3CCOCC3)c3ccc(F)cc23)cc1` [Example 1G], under setting [3], the inhibition in vivo at 3 mg/kg is 0% and the inhibition in vivo at 10 mg/kg turned out to be 50%. Moreover, the inhibition in vivo at 30 mg/kg under setting [4] is 100%. Further, the ED50 (Mus musculus, po) is 84 mg/kg.

For `COc1ccc(C(=O)c2c(C)n(CCN3CCOCC3)c3ccccc23)cc1` [Example 1H], the inhibition in vivo at 3 mg/kg under setting [3] was determined as 0%. In addition, under setting [3], the inhibition in vivo at 10 mg/kg turned out to be 30%. Besides, the inhibition in vivo at 30 mg/kg reads like this: under setting [4], 100%; under setting [5], 2%. The inhibition in vivo at 100 mg/kg under setting [1] turned out to be 33%. The inhibition in vivo at 300 mg/kg under setting [2] is 71%.
